Values quoted from earlier work as cited in patent US20020111317A1, “Sixteen-membered macrolide compounds” (priority 2000, published 2002).

Tests used:
[1] = target: wildtype ribosomes; settings: read-out: Kd using wildtype ribosomes
[2] = target: methylated ribosome (e.g., A2058G mutant); settings: read-out: Kd using methylated ribosome

SMILES | Kd [1] [µM] | Kd [2] [µM]
CC[C@H]1OC(=O)[C@H](C)[C@@H](O[C@H]2C[C@@](C)(OC)[C@@H](O)[C@H](C)O2)[C@H](C)[C@@H](O[C@@H]2O[C@H](C)C[C@H](N(C)C)[C@H]2O)[C@](C)(O)C[C@@H](C)C(=O)[C@H](C)[C@@H](O)[C@]1(C)O [erythromycin A] | ~0.014 | ~190
CC[C@H]1OC(=O)[C@H](C)C(=O)[C@H](C)[C@@H](O[C@@H]2O[C@H](C)C[C@H](N(C)C)[C@H]2O)[C@](C)(OC)C[C@@H](C)C(=O)[C@H](C)[C@H]2N(CCCCn3cnc(-c4cccnc4)c3)C(=O)O[C@]12C [telithromycin] | ~0.0013 | ~0.058
